Data set [1] addresses T1, recombinant Cyp 4a14 (Mus musculus, UniProt O35728).
T1 construct: A KpnI-XhoI cDNA fragment (1.9 kb) was subcloned into the pBlueBac IV vector; made in house; host or cells: Sf9 insect cells / baculovirus (pBlueBac IV, Invitrogen)
T1 sequence (O35728 5-507): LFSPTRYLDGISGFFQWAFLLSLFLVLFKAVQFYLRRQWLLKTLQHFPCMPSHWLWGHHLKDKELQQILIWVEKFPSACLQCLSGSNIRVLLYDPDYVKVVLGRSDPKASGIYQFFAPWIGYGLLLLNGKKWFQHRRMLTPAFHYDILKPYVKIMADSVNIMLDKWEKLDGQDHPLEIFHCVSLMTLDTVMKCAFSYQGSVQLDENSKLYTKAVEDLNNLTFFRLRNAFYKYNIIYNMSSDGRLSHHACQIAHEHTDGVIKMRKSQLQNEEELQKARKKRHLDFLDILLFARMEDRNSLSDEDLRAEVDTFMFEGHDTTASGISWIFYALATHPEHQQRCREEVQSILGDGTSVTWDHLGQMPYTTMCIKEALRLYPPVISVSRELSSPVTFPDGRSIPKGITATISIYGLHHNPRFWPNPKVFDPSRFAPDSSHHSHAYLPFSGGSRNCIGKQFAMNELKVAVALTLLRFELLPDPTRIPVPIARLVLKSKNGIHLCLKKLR
Description: Substrate oxidation by purified recombinant Cyp 4a14. The format is biochemical. The procedure: (§1) Kidney microsomes were isolated from treated and nontreated Cyp 4a14 (+/+) and (−/−) mice (21), suspended (1-2 mg of protein/ml) in 0.05 M Tris·Cl (pH 7.4) containing 0.15 M KCl and 10 mM MgCl2, and incubated with [1^14C]AA or lauric acid (100 μM, 5 μCi/μmol each) and NADPH (1 mM) at 35° C. Reaction products were resolved and quantified as described (21). For antibody inhibition, microsomes were incubated (30 min at 22° C.) with rabbit anti-CYP 4A2 or nonimmune serum (0.1-1 mg of protein/ml) before enzymatic analysis. Recombinant Cyp 4a14 (0.1-1 μM) was incubated with [1-^14C]-labeled AA or lauric acid in the presence of purified P450 reductase, cytochrome b5, dilauroylphosphatidylcholine, and NADPH (1 mM), as described (15, 21). Urine collections (8-12 h) were incubated at 35° C. for 2-3 h with -glucoronidase (22) (Sigma) (1 mg/ml) and, after purification, the levels of 19- and 20-HETE were quantified by mass spectroscopy (22).

Data set [2] relates to renal vasculature. To be noted: synthetic 20-HETE; cited from earlier work.
Data set [3] has as its target T2, rat CYP 4A1 (Rattus norvegicus, UniProt P08516).
T2 sequence (P08516 1-509): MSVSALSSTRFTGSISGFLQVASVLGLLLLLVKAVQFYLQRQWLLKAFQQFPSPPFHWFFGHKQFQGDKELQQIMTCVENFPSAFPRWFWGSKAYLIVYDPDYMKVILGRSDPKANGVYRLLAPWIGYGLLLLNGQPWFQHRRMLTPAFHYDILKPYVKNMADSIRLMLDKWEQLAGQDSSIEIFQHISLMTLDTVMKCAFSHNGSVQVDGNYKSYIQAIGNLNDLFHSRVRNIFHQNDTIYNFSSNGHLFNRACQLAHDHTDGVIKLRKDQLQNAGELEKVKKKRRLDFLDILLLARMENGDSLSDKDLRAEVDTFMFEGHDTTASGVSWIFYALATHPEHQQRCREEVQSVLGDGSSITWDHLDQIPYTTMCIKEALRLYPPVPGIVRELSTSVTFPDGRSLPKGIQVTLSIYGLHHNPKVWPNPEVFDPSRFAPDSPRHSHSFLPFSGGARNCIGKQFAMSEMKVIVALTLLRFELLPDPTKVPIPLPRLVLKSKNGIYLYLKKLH
Description: TST oxidation by rat CYP 4A1.

Data set [4] deals with T3, rat CYP 4A2 (Rattus norvegicus, UniProt P20816).
T3 sequence (P20816 5-504): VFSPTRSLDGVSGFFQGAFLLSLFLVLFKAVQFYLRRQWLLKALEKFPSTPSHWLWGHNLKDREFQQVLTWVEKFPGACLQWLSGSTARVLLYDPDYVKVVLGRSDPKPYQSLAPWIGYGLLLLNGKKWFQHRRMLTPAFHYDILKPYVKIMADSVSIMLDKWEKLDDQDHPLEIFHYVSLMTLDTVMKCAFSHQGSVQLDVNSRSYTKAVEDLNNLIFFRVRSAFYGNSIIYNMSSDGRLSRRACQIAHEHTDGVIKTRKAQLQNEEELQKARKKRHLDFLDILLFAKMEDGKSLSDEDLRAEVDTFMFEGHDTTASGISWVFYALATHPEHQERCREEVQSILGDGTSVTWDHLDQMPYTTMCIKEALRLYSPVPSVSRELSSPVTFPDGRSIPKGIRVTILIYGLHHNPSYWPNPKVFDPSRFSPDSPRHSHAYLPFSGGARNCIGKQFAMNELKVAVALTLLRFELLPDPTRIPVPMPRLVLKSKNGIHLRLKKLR
The data set can be described thus: TST oxidation by rat CYP 4A2.

In data set [5] the test system is Cyp 4a14 (+/+) and (−/−) mice. Description: Arterial blood pressure of conscious mice by right carotid artery catheter. Format: in vivo, mouse. To be noted: for Effect on hypertensive phenotype (blood pressure): castrated Cyp 4a14 (−/−) mice, androgen-releasing pellets. The procedure:
The arterial blood pressures of conscious 12- to 14-week-old mice were measured by means of a right carotid artery catheter (300-500 μm OD). After surgery (24-48 h), animals were allowed to become familiar with the environment and, after stabilization, their arterial blood pressures were monitored continuously for at least 30 min by using a pressure transducer. […] For measurements of afferent arteriolar diameter, male kidneys were perfused in vitro with a physiological salt solution supplemented with a mixture of L-amino acids (23), and the juxtamedullary vasculature was monitored continuously by videomicroscopy, as described (23). The relationship between afferent arteriolar diameter and perfusion pressure was determined at 80, 120, and 160 mm Hg. Perfusion pressure changes were followed by a 3-min equilibration before steady-state diameter measurements (23).

Data set [6] in a line: Plasma androgen levels (TST and DHT) by RIA in castrated, pellet-implanted mice. The conditions noted are these: for concentration at 10 days: male, mouse, in vivo, 5 mg DHT/day, Plasma DHT level, DHT-releasing pellets, ten days after implantation.
Data set [7] concerns Arachidonic acid ω-hydroxylase of mouse kidney microsomes. To be noted: DHT pellets. The procedure:
as §1

The test system of data set [8] is Cyp 4a12 transcripts. The conditions noted are these: DHT-treated castrated Cyp 4a14 (−/−) mice.
Description: Top frame: Samples of total RNA (5-10 μg each) from the kidneys of control (A), castrated (B), castrated and DHT-treated (C) males or from control (D) and DHT-treated (E) females were fractionated by agar electrophoresis, transferred to nitrocellulose membranes, and hybridized to ^32P-labeled DNA probes (400-500 bp) coding for segments of the 3′-untranslated end of the Cyp 4a10, 4a12, and 4a14 cDNAs. After high-stringency washes, the membranes were exposed to x-ray films for 4, 2, or 21 h for male Cyp 4a10, 4a12, and 4a14, respectively, and 6, 21, or 12 h for female Cyp 4a10, 4a12, and 4a14, respectively. RNA loadings were normalized by using a -actin cDNA probe. […] Bottom frame: Dehydrated paraffin sections from the kidneys of control (A and A′), castrated (B and B′) and DHT-treated castrated male mice (C and C′) were hybridized to [^35S]-labeled riboprobes encoding 3′-end untranslated segments of the Cyp 4a12 cDNA. After washing, RNase A treatment, and dehydration, the sections were dipped in emulsion (IlfordK5; Knutsford, Cheshire, U.K.), exposed for 4-5 days at 4° C., and developed by using D-19 (Kodak). Slides were counterstained with hematoxylin. Photomicrographs were obtained by using either dark-field (3×) (A-C) or bright-field (100×) (A′, B′, and C′) optics.

Like-named read-outs stand apart in the source and are kept apart here.

In the case of `CCCCCCCCCCCC(=O)O` [lauric acid], the “Lauric acid oxidation rate” value in data set [1] (purified recombinant Cyp 4a14) was 4.0±0.8 nmol product/min/nmol of P450.
For `CCCCC/C=C\C/C=C\C/C=C\C/C=C\CCCC(=O)O` [AA, arachidonic acid], in data set [1] (purified recombinant Cyp 4a14, even with cytochrome b5, excess P450 reductase, GSH, EDTA, and/or sodium cholate), the AA metabolism result is listed as “did not metabolize AA”.
Regarding `O=C(O)CCC/C=C\C/C=C\C/C=C\C/C=C\CCCCCO` [20-HETE, 20-hydroxyarachidonic acid], in data set [2], the Renal vasoconstrictor activity result is given as “powerful renal vasoconstrictor”.
Take `C[C@]12CC[C@H]3[C@@H](CCC4=CC(=O)CC[C@@]43C)[C@@H]1CC[C@@H]2O` [TST, testosterone]: the TST oxidation result in data set [3] and in data set [4] was “neither recombinant Cyp 4a14 nor rat CYPs 4A1 or 4A2 catalyzed TST oxidation” throughout. Also, in data set [5], the “Effect on hypertensive phenotype (blood pressure)” value is recorded as “restored the hypertensive phenotype”. Further, the “Plasma TST level” value in data set [6] (castrated Cyp 4a14 (−/−) mice given TST, n=7) is 1.8±0.04 ng TST/ml.
With `C[C@]12CCC(=O)C[C@@H]1CC[C@@H]1[C@@H]2CC[C@]2(C)[C@@H](O)CC[C@@H]12` [DHT, 5-dihydrotestosterone], the “(20-HETE) % of total” value was 82 % of total in data set [7] (castrated male (+/+) mice), 82 % of total in data set [7] (castrated male (−/−) mice), 76 % of total in data set [7] (female (+/+) mice) and 77 % of total in data set [7] (female (−/−) mice). Moreover, the ω-Hydroxylase rate in data set [7] (castrated male (+/+) mice) was 228 ± 35 picomoles of product formed per minute per milligram of microsomal protein; in data set [7] (castrated male (−/−) mice) it was 225 ± 23 picomoles of product formed per minute per milligram of microsomal protein; in data set [7] (female (+/+) mice), 140 ± 3 picomoles of product formed per minute per milligram of microsomal protein; in data set [7] (female (−/−) mice) it was 164 ± 3 picomoles of product formed per minute per milligram of microsomal protein. Further, the “Cyp 4a12 transcript expression in kidney” value in data set [8] is “abundant and selective expression of 4a 12 transcripts in the renal cortex”. Further, the MABP in data set [5] (DHT-treated castrated Cyp 4a14 (+/+) mice, n=10) is listed as 137±4 mm of Hg; in data set [5] (DHT-treated control (noncastrated) Cyp 4a14 (+/+) mice, n=10), 140±5 mm of Hg; in data set [5] (DHT-treated female Cyp 4a14 (+/+) mice), 132±4 mm of Hg; in data set [5] (DHT-treated female Cyp 4a14 (−/−) mice), 133±4 mm of Hg. Further, in data set [5], the “Effect on hypertensive phenotype (blood pressure)” value is “restored the hypertensive phenotype”. The concentration at 10 days in data set [6] (castrated male Cyp 4a14 (+/+) mice) turned out to be 2.64 ± 0.3 ng/mL; in data set [6] (castrated male Cyp 4a14 (−/−) mice), 2.01 ± 0.1 ng/mL.

Values taken from patent US20020165208A1, “Compositions and methods relating to hypertension” (priority 2000, published 2002).
